Test systems include SF-268; DLD-1; ACHN; HL-60; SR; A549; DMS-273; SK-MEL-28; IGROV-1; NCI-H460; SNB-78; NCI-H522; RXF 393; M14; HT-29; OVCAR-5.
Holding throughout (experiment): NCI-60 cell line screen, 48 h

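Cells were grown in 96-well plates and exposed to each compound for 48 hours at five concentrations; endpoints were interpolated linearly between bracketing concentrations, or set to the highest concentration if not reached. GI50 is the concentration that inhibits growth by half.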 Activity calls are given as the source filed them. No stated cut-off is given here; in the data, active = GI50 up to about 1.1 µM and inactive = higher. Bounds are passed on as bounds.

On to `O=C(O)CC1CC=C[C@H]2c3cc4c(cc3C(=O)NC12)OCO4` (some centres not stated), for which the GI50 with SF-268, with DLD-1, with ACHN, with HL-60, in the test on SR and in the test with A549 was > 75 µM (inactive) each time. Moreover, the GI50 in the test on DMS-273, in the test on SK-MEL-28, in the test with IGROV-1, in the test on NCI-H460, in the test on SNB-78 and with NCI-H522 was > 75 µM (inactive) throughout. Also, the GI50 in the test with RXF 393 and in the test on M14 was > 75 µM (inactive) throughout.
Consider `O=C1CCC2CCOc3ccc(O)c1c32` (configuration not stated), for which the GI50 in the test with SF-268, in the test with DLD-1, in the test with ACHN, with HT-29, with HL-60 and in the test with SR was > 100 µM (inactive) each time. Besides, the GI50 in the test on A549, with DMS-273, in the test with SK-MEL-28, in the test with IGROV-1, in the test with NCI-H460 and in the test on SNB-78 was > 100 µM (inactive) in each case. In addition, the GI50 with NCI-H522, in the test with OVCAR-5, in the test on RXF 393 and with M14 was > 100 µM (inactive) each time.
As for `CCCCN/C(=N/C#N)NCc1ccccc1`, the GI50 with SF-268, in the test on DLD-1, with ACHN, with HT-29, in the test on HL-60 and with SR was > 100 µM (inactive) throughout. Further, the GI50 in the test with A549, with DMS-273, in the test with SK-MEL-28, with IGROV-1, in the test with NCI-H460 and in the test with SNB-78 was > 100 µM (inactive) each time. In addition, the GI50 in the test with NCI-H522, with OVCAR-5 and in the test on M14 was > 100 µM (inactive) in each case.
For the compound `CC(=O)OCCc1cccnc1/C=N/O`, the GI50 in the test with SF-268, in the test with DLD-1, in the test on ACHN, in the test with HT-29, with HL-60 and in the test on SR was > 100 µM (inactive) throughout. For the same compound, the GI50 in the test with A549, in the test with DMS-273, with SK-MEL-28, with IGROV-1, in the test with NCI-H460 and with SNB-78 was > 100 µM (inactive) each time. Also, the GI50 in the test with NCI-H522, with OVCAR-5, with RXF 393 and in the test with M14 was > 100 µM (inactive) throughout.
For `CCN1/C(=C/C(C)=C/c2sc3ccccc3[n+]2CC)Sc2ccccc21`, the GI50 with SF-268 is 0.447 µM (active); with DLD-1, 0.207 µM (active); with ACHN, 0.295 µM (active); in the test on HT-29, 0.307 µM (active); with HL-60, 0.0405 µM (active); with SR it was 0.181 µM (active). Besides, the GI50 in the test with A549 was 0.0843 µM (active); in the test with DMS-273, 0.064 µM (active); in the test with SK-MEL-28, 0.0285 µM (active); with IGROV-1, 0.279 µM (active); in the test on NCI-H460 it was 0.0621 µM (active); in the test on SNB-78 it was 0.34 µM (active). The GI50 in the test on NCI-H522 is 0.0574 µM (active); with OVCAR-5 it was 0.431 µM (active); in the test with RXF 393, 0.273 µM (active); in the test on M14 it was 0.212 µM (active).
On to `C(/COc1cccnc1)=N\NC1=NCCN1`, for which the GI50 in the test on SF-268, in the test on DLD-1, in the test with ACHN, with HT-29, in the test on HL-60 and with SR was > 100 µM (inactive) throughout. Moreover, the GI50 with A549, in the test on DMS-273, with SK-MEL-28, in the test with IGROV-1, in the test on NCI-H460 and in the test on SNB-78 was > 100 µM (inactive) in each case. Moreover, the GI50 with NCI-H522, with OVCAR-5, with RXF 393 and in the test on M14 was > 100 µM (inactive) in each case.
As for `Cc1ccc(/N=C/c2ccc3c(c2)OCO3)cc1C`, the GI50 in the test with SF-268, in the test with DLD-1, in the test on ACHN, in the test with HT-29, in the test with HL-60 and with SR was > 100 µM (inactive) in each case. Also, the GI50 in the test with A549, in the test with DMS-273, in the test with SK-MEL-28, with IGROV-1, in the test on NCI-H460 and with SNB-78 was > 100 µM (inactive) each time. Besides, the GI50 in the test on NCI-H522, in the test with OVCAR-5, in the test on RXF 393 and in the test on M14 was > 100 µM (inactive) throughout.
Take `CS(=O)(=O)OCCN1CCN(C(=O)c2cccc3c(Nc4ccc(S(N)(=O)=O)cc4)c4ccccc4nc23)CC1`: the GI50 is > 100 µM (inactive) in the test on SF-268; > 46.8 µM (inactive) in the test with DLD-1; > 100 µM (inactive) in the test on ACHN; > 100 µM (inactive) with HT-29; > 63.1 µM (inactive) with HL-60; > 100 µM (inactive) in the test on SR. Moreover, the GI50 in the test with A549, in the test with DMS-273, with SK-MEL-28, with IGROV-1, with NCI-H460 and in the test with SNB-78 was > 100 µM (inactive) each time. In addition, the GI50 is > 100 µM (inactive) with NCI-H522, > 100 µM (inactive) in the test on OVCAR-5, > 55.2 µM (inactive) with RXF 393 and > 100 µM (inactive) in the test with M14.
Regarding `CC12CC(=O)OC(Cc3ccccc31)O2` (configuration not stated), the GI50 in the test on SF-268, in the test with DLD-1, in the test on ACHN, with HT-29, in the test on HL-60 and in the test with SR was > 100 µM (inactive) each time. Besides, the GI50 in the test on A549, with DMS-273, in the test with SK-MEL-28, in the test with IGROV-1, in the test with NCI-H460 and in the test with SNB-78 was > 100 µM (inactive) each time. The GI50 with NCI-H522, with RXF 393 and in the test on M14 was > 100 µM (inactive) in each case.
As for `CN(C)CC/C(=N\Nc1c(Cl)cccc1Cl)c1ccccc1`, the GI50 was 31.1 µM (inactive) in the test with DLD-1; 16 µM (inactive) with ACHN; 15.8 µM (inactive) with HT-29; 16.3 µM (inactive) with HL-60; 21.5 µM (inactive) in the test on SR; 29.3 µM (inactive) with A549. For the same compound, the GI50 in the test with DMS-273 is 16.8 µM (inactive); in the test on SK-MEL-28 it was 19.2 µM (inactive); in the test with IGROV-1, 26.6 µM (inactive); in the test on NCI-H460, 16.3 µM (inactive); with SNB-78, 16.7 µM (inactive); with NCI-H522, 17.5 µM (inactive). Moreover, the results for the GI50 in the test on OVCAR-5, with RXF 393 and in the test with M14 were 19.2 µM (inactive), 11.8 µM (inactive) and 18.2 µM (inactive), respectively.
`O=C1NN=CN2C(=O)CCC12` (configuration not stated): the GI50 with SF-268, in the test on DLD-1, in the test on ACHN, in the test on HL-60, in the test on SR and in the test with A549 was > 100 µM (inactive) each time. In addition, the GI50 with DMS-273, with SK-MEL-28, in the test on IGROV-1, with NCI-H460, in the test with SNB-78 and in the test on RXF 393 was > 100 µM (inactive) throughout. In addition, the GI50 in the test on M14 was > 100 µM (inactive).
Consider `CCOc1ccc(/C=N\N2C(=O)c3ccccc3C2=O)cc1`, for which the GI50 in the test on SF-268, with DLD-1, in the test on ACHN, in the test with HT-29, in the test with HL-60 and in the test on SR was > 100 µM (inactive) throughout. The GI50 in the test on A549, with DMS-273, in the test on SK-MEL-28, in the test on IGROV-1, with NCI-H460 and in the test on SNB-78 was > 100 µM (inactive) each time. In addition, the GI50 with OVCAR-5, in the test on RXF 393 and with M14 was > 100 µM (inactive) each time.
With `CCOC(=O)C(=O)Nc1nc2c(s1)C(=O)c1ccccc1C2=O`, the GI50 in the test on SF-268 was 14.1 µM (inactive); in the test with DLD-1, 15.3 µM (inactive); in the test with ACHN it was 14.9 µM (inactive); in the test on HT-29 it was 14.4 µM (inactive); in the test on SR, 3.43 µM (inactive); in the test with A549, 17.8 µM (inactive). Also, the GI50 is 19.6 µM (inactive) in the test on DMS-273; 14.3 µM (inactive) in the test with SK-MEL-28; 19.1 µM (inactive) with IGROV-1; 19.2 µM (inactive) with NCI-H460; 11.6 µM (inactive) in the test with SNB-78; 14.9 µM (inactive) with NCI-H522. The GI50 in the test on OVCAR-5 was 27.7 µM (inactive); in the test with M14 it was 15.7 µM (inactive).

The record behind these values is ChEMBL document CHEMBL1201862, “PubChem BioAssay data set” (2004).
